How the values were obtained:
CA755 adenocarcinoma = CA755 adenocarcinoma tumor model; type: in vivo, mice (C57BL/6); conditions: IP, Days 1,5,9
Source text: CA755--The adenocarcinoma 755 is an undifferentiated mammary carcinoma which was obtained in 1980 from the Division of Cancer Treatment, N.C.I., tumor bank maintained at E.G. and G. Mason Research (Worchester, Mass.). First passage tumor was stored in liquid nitrogen using standard techniques. The transplanted tumor was re-established from the tumor bank every six months or as needed. The tumor is maintained by serial passage once a week in C57BL/6 female mice (Jackson Laboratory; Bar Harbor, Me.).
(§1) The tumor was removed from passage animals and minced into 1 to 3 mm square fragments using sterile techniques. Tumor pieces were checked for sterility using both Antibiotic Medium 1 and Brain Heart Infusion (Difco; Detroit, Mich.). Recipient mice were shaved and tumor pieces were implanted subcutaneously in the axillary region by trocar. Drug therapy on the appropriate schedule was initiated on the day after tumor implant. The compound was dissolved in saline for all experiments. All animals were weighed at the beginning and end of drug treatment. Food and water were provided ad libitum. On days 10 to 12, two dimensional measurements (width and length) of all tumors were taken using vernier calipers. Tumor weights were calculated from these measurements using the following formula:
(§2) Tumor Weight (mg)=Tumor Length (mm)×Tumor Width (mm)^2 /2
(§3) For all data, the tumor weight was rounded to the nearest tenth of a gram for analysis. No group is included in the analysis for therapeutic activity in which deaths attributable to drug toxicity exceeded 30 percent of the treated group.
(§4) In Table 3 which follows, column 1 gives the example number of the compound tested; column 2 provides the tumor system; column 3, the dose level; column 4, the route administered; column 5, the dosage schedule; column 6, the percent inhibition of the tumor; and column 7, the toxic deaths observed prior to completion of the study.

[1] = system: P1534J lymphatic leukemia; experiment: P1534J lymphatic leukemia tumor model; type: in vivo, mice (DBA/2); conditions: IP, Days 1,5,9
Source text: P1534J--The P1534J lymphocytic leukemia (solid form) was obtained in 1973 from the Jackson Laboratory (Bar Harbor, Me.). First passage tumor was stored in liquid nitrogen using standard techniques. Subsequent replenishment of the tumor bank with this tumor was accomplished from first passage tumor. The transplanted tumor was re-established from the tumor bank every six months or as needed. The tumor is maintained by serial passage once a week in DBA/2 mice (Charles River; Wilmington, Mass.).
as §1, §2, §3, §4

Q: For `Nc1ccn(C2O[C@H](CO)[C@@H](O)C2(F)F)c(=O)n1` (some centres unmarked) [Example 1, 1-(4-Amino-2-oxo-1H-pyrimidin-1-yl)-2-desoxy-2,2-difluororibose], which “Percent Inhibition of Tumor” value (CA755 adenocarcinoma; 1.25 mg/kg) is on record?
A: 0%

Q: And the “Toxic Deaths” value (CA755 adenocarcinoma; 1.25 mg/kg)?
A: 0/10

Q: And the “Percent Inhibition of Tumor” value (CA755 adenocarcinoma; 2.5 mg/kg)?
A: 44%

Q: And the “Toxic Deaths” value (CA755 adenocarcinoma; 2.5 mg/kg)?
A: 0/10

Q: What about the “Percent Inhibition of Tumor” value (CA755 adenocarcinoma; 5.0 mg/kg) of the same molecule?
A: 85%

Q: What about the “Toxic Deaths” value (CA755 adenocarcinoma; 5.0 mg/kg) of the same molecule?
A: 0/10

Q: What about the “Percent Inhibition of Tumor” value (CA755 adenocarcinoma; 10.0 mg/kg) of the same molecule?
A: 86%

Q: What about the “Toxic Deaths” value (CA755 adenocarcinoma; 10.0 mg/kg) of the same molecule?
A: 0/10

Q: What about the “Percent Inhibition of Tumor” value (CA755 adenocarcinoma; 20.0 mg/kg) of the same molecule?
A: 94%

Q: What about the “Toxic Deaths” value (CA755 adenocarcinoma; 20.0 mg/kg) of the same molecule?
A: 0/10

Q: What about the “Percent Inhibition of Tumor” value ([1]; 1.25 mg/kg) of the same molecule?
A: 8%

Q: And the “Toxic Deaths” value ([1]; 1.25 mg/kg)?
A: 0/10

Q: What about the “Percent Inhibition of Tumor” value ([1]; 2.5 mg/kg) of the same molecule?
A: 30%

Q: And the “Toxic Deaths” value ([1]; 2.5 mg/kg)?
A: 0/10

Q: And the “Percent Inhibition of Tumor” value ([1]; 5.0 mg/kg)?
A: 47%

Q: What about the “Toxic Deaths” value ([1]; 5.0 mg/kg) of the same molecule?
A: 0/10

Q: And the “Percent Inhibition of Tumor” value ([1]; 10.0 mg/kg)?
A: 71%

Q: What about the “Toxic Deaths” value ([1]; 10.0 mg/kg) of the same molecule?
A: 2/10

Q: And the “Percent Inhibition of Tumor” value ([1]; 20.0 mg/kg)?
A: 92%

Q: What about the “Toxic Deaths” value ([1]; 20.0 mg/kg) of the same molecule?
A: 1/10

From patent US5464826A, “Method of treating tumors in mammals with 2',2'-difluoronucleosides” (Eli Lilly and Company, priority 1994, dated 1995)
